Numbers after ± are expanded uncertainties.
How the values were obtained:
[1] = 101 kPa, Liquid; for viscosity: Capillary tube (Ostwald / Ubbelohde) method; for mass density: Vibrating tube method
[2] = xn = mol fraction of the nth substance listed; settings: 101 kPa, Liquid; for viscosity: Capillary tube (Ostwald / Ubbelohde) method; for mass density: Vibrating tube method

Compound: NCCO [2-aminoethan-1-ol]
- viscosity ([1]; 298.15 K): 19.9 ± 0.28 mPa·s
- mass density ([1]; 298.15 K): 1012 ± 1 kg/m3
- viscosity ([1]; 313.15 K): 9.61 ± 0.23 mPa·s
- mass density ([1]; 313.15 K): 1000 ± 1 kg/m3
- viscosity ([1]; 323.15 K): 6.72 ± 0.21 mPa·s
- mass density ([1]; 323.15 K): 992 ± 1 kg/m3
- viscosity ([1]; 343.15 K): 3.69 ± 0.2 mPa·s
- mass density ([1]; 343.15 K): 976 ± 1 kg/m3
- viscosity ([1]; 353.15 K): 2.85 ± 0.2 mPa·s
- mass density ([1]; 353.15 K): 968 ± 1 kg/m3

Compound: NCCO [2-aminoethan-1-ol] + O
- viscosity ([2]; 298.15 K, x1 = 0.06867): 1.7 ± 0.2 mPa·s
- viscosity ([2]; 298.15 K, x1 = 0.1122): 2.48 ± 0.21 mPa·s
- viscosity ([2]; 298.15 K, x1 = 0.1643): 3.58 ± 0.22 mPa·s
- viscosity ([2]; 298.15 K, x1 = 0.2278): 5.51 ± 0.23 mPa·s
- viscosity ([2]; 298.15 K, x1 = 0.4076): 12.46 ± 0.29 mPa·s
- viscosity ([2]; 298.15 K, x1 = 0.7264): 19.4 ± 0.3 mPa·s
- mass density ([2]; 298.15 K, x1 = 0.06867): 1005 ± 5 kg/m3
- mass density ([2]; 298.15 K, x1 = 0.1122): 1011 ± 4 kg/m3
- mass density ([2]; 298.15 K, x1 = 0.1643): 1016 ± 4 kg/m3
- mass density ([2]; 298.15 K, x1 = 0.2278): 1021 ± 4 kg/m3
- mass density ([2]; 298.15 K, x1 = 0.4076): 1026 ± 2 kg/m3
- mass density ([2]; 298.15 K, x1 = 0.7264): 1020 ± 1 kg/m3
- viscosity ([2]; 313.15 K, x1 = 0.06867): 1.18 ± 0.2 mPa·s
- viscosity ([2]; 313.15 K, x1 = 0.1122): 1.67 ± 0.2 mPa·s
- viscosity ([2]; 313.15 K, x1 = 0.1643): 2.28 ± 0.21 mPa·s
- viscosity ([2]; 313.15 K, x1 = 0.2278): 3.39 ± 0.21 mPa·s
- viscosity ([2]; 313.15 K, x1 = 0.4076): 6.96 ± 0.24 mPa·s
- viscosity ([2]; 313.15 K, x1 = 0.7264): 10.2 ± 0.24 mPa·s
- mass density ([2]; 313.15 K, x1 = 0.06867): 999 ± 5 kg/m3
- mass density ([2]; 313.15 K, x1 = 0.1122): 1003 ± 4 kg/m3
- mass density ([2]; 313.15 K, x1 = 0.1643): 1008 ± 4 kg/m3
- mass density ([2]; 313.15 K, x1 = 0.2278): 1012 ± 3 kg/m3
- mass density ([2]; 313.15 K, x1 = 0.4076): 1016 ± 2 kg/m3
- mass density ([2]; 313.15 K, x1 = 0.7264): 1008 ± 1 kg/m3
- viscosity ([2]; 323.15 K, x1 = 0.06867): 0.95 ± 0.2 mPa·s
- viscosity ([2]; 323.15 K, x1 = 0.1122): 1.33 ± 0.2 mPa·s
- viscosity ([2]; 323.15 K, x1 = 0.1643): 1.75 ± 0.2 mPa·s
- viscosity ([2]; 323.15 K, x1 = 0.2278): 2.54 ± 0.21 mPa·s
- viscosity ([2]; 323.15 K, x1 = 0.4076): 4.94 ± 0.22 mPa·s
- viscosity ([2]; 323.15 K, x1 = 0.7264): 7.06 ± 0.22 mPa·s
- mass density ([2]; 323.15 K, x1 = 0.06867): 994 ± 5 kg/m3
- mass density ([2]; 323.15 K, x1 = 0.1122): 998 ± 4 kg/m3
- mass density ([2]; 323.15 K, x1 = 0.1643): 1002 ± 4 kg/m3
- mass density ([2]; 323.15 K, x1 = 0.2278): 1005 ± 3 kg/m3
- mass density ([2]; 323.15 K, x1 = 0.4076): 1008 ± 2 kg/m3
- mass density ([2]; 323.15 K, x1 = 0.7264): 1001 ± 1 kg/m3
- viscosity ([2]; 343.15 K, x1 = 0.06867): 0.67 ± 0.2 mPa·s
- viscosity ([2]; 343.15 K, x1 = 0.1122): 0.92 ± 0.2 mPa·s
- viscosity ([2]; 343.15 K, x1 = 0.1643): 1.14 ± 0.2 mPa·s
- viscosity ([2]; 343.15 K, x1 = 0.2278): 1.57 ± 0.2 mPa·s
- viscosity ([2]; 343.15 K, x1 = 0.4076): 2.79 ± 0.21 mPa·s
- viscosity ([2]; 343.15 K, x1 = 0.7264): 3.81 ± 0.21 mPa·s
- mass density ([2]; 343.15 K, x1 = 0.06867): 983 ± 5 kg/m3
- mass density ([2]; 343.15 K, x1 = 0.1122): 986 ± 4 kg/m3
- mass density ([2]; 343.15 K, x1 = 0.1643): 989 ± 4 kg/m3
- mass density ([2]; 343.15 K, x1 = 0.2278): 992 ± 3 kg/m3
- mass density ([2]; 343.15 K, x1 = 0.4076): 993 ± 2 kg/m3
- mass density ([2]; 343.15 K, x1 = 0.7264): 985 ± 1 kg/m3
- viscosity ([2]; 353.15 K, x1 = 0.06867): 0.58 ± 0.2 mPa·s
- viscosity ([2]; 353.15 K, x1 = 0.1122): 0.77 ± 0.2 mPa·s
- viscosity ([2]; 353.15 K, x1 = 0.1643): 0.95 ± 0.2 mPa·s
- viscosity ([2]; 353.15 K, x1 = 0.2278): 1.28 ± 0.2 mPa·s
- viscosity ([2]; 353.15 K, x1 = 0.4076): 2.18 ± 0.2 mPa·s
- viscosity ([2]; 353.15 K, x1 = 0.7264): 2.93 ± 0.2 mPa·s
- mass density ([2]; 353.15 K, x1 = 0.06867): 977 ± 5 kg/m3
- mass density ([2]; 353.15 K, x1 = 0.1122): 979 ± 4 kg/m3
- mass density ([2]; 353.15 K, x1 = 0.1643): 982 ± 4 kg/m3
- mass density ([2]; 353.15 K, x1 = 0.2278): 984 ± 3 kg/m3
- mass density ([2]; 353.15 K, x1 = 0.4076): 985 ± 2 kg/m3
- mass density ([2]; 353.15 K, x1 = 0.7264): 976 ± 1 kg/m3
